Measurements published in article PMC7614683, “A small molecule PI3Kα activator for cardioprotection and neuroregeneration” (Nature, 2023).
Like-named read-outs stand apart in the source and are kept apart here.

How the values were obtained:
Test in all cases: SelectScreen Z-LYTE kinase activity assay (SI Table 6)
Assay type in all cases: biochemical
[1] = target: protein kinases of the Z-LYTE panel (Homo sapiens, UniProt Q9P0L2)
Summary of the method: (§1)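 A single compound concentration of 1 μM was profiled in the vendor's Adapta, Lantha and Z-LYTE kinase assays. In gel-based follow-ups with 200 μM compound, phosphorylation was resolved on Phos-tag SDS-PAGE and quantified by Coomassie. The ATM run used 1 mM ATP with GST-p53 for 30 min, and the mTORC1 run used 250 μM ATP with 4E-BP1 for 3 h.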

[2] = target: protein kinases of the Z-LYTE panel (Homo sapiens, UniProt P07947)
Summary of the method: as §1

[3] = target: protein kinases of the Z-LYTE panel (Homo sapiens, UniProt Q9H792)
Summary of the method: as §1

[4] = target: protein kinases of the Z-LYTE panel (Homo sapiens, UniProt P04629)
Summary of the method: as §1

[5] = target: protein kinases of the Z-LYTE panel (Homo sapiens, UniProt O75582)
Summary of the method: as §1

[6] = target: protein kinases of the Z-LYTE panel (Homo sapiens, UniProt P31751)
Summary of the method: as §1

[7] = target: protein kinases of the Z-LYTE panel (Homo sapiens, UniProt Q13153)
Summary of the method: as §1

[8] = target: protein kinases of the Z-LYTE panel (Homo sapiens, UniProt P42345)
Summary of the method: as §1

[9] = target: protein kinases of the Z-LYTE panel (Homo sapiens, UniProt P49760)
Summary of the method: as §1

[10] = target: T1, protein kinases of the Z-LYTE panel (Homo sapiens, UniProt O14920)
T1 sequence (O14920 1-756): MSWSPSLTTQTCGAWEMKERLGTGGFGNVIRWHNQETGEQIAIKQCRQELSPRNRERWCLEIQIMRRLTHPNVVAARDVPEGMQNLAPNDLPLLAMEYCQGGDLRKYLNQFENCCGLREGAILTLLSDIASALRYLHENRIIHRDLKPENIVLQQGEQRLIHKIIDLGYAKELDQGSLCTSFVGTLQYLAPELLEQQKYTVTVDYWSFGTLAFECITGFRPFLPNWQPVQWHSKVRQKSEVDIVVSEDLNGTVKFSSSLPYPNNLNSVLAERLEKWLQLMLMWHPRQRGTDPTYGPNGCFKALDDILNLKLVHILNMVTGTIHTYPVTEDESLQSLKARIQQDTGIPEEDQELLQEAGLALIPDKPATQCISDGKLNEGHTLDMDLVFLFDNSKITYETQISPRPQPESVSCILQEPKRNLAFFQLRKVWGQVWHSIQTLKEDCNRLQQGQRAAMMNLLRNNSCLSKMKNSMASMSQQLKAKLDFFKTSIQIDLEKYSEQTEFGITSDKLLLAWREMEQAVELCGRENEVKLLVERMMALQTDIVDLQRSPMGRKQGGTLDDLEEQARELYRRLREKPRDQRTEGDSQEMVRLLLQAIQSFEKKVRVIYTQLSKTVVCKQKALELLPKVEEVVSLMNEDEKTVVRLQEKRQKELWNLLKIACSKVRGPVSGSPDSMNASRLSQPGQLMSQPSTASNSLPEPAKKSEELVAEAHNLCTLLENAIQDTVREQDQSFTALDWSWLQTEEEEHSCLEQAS
Summary of the method: as §1

[11] = target: protein kinases of the Z-LYTE panel (Homo sapiens, UniProt Q7KZI7)
Summary of the method: as §1

Chain of protein kinases of the Z-LYTE panel (Homo sapiens, UniProt P04629) (P04629 33-796): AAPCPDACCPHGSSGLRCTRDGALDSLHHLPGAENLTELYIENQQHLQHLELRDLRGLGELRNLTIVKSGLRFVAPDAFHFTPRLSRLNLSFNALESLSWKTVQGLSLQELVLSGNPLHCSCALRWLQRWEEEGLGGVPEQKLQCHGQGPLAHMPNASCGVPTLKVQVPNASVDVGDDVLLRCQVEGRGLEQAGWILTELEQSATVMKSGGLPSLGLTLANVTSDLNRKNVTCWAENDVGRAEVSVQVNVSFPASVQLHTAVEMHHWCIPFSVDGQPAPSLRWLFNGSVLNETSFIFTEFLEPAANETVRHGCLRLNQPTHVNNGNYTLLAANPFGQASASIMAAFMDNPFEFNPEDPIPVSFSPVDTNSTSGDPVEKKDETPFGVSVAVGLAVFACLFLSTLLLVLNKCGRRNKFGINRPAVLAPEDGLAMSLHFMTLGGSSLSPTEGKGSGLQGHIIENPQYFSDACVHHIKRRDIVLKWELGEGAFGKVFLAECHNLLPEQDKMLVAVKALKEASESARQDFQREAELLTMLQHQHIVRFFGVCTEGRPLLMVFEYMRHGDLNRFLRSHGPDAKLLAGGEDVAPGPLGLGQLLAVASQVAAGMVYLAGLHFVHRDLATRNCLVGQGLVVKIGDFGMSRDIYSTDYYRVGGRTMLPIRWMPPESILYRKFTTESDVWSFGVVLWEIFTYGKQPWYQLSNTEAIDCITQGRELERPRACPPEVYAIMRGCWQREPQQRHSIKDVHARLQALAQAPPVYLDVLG
Chain of protein kinases of the Z-LYTE panel (Homo sapiens, UniProt P49760) (P49760 whole entry): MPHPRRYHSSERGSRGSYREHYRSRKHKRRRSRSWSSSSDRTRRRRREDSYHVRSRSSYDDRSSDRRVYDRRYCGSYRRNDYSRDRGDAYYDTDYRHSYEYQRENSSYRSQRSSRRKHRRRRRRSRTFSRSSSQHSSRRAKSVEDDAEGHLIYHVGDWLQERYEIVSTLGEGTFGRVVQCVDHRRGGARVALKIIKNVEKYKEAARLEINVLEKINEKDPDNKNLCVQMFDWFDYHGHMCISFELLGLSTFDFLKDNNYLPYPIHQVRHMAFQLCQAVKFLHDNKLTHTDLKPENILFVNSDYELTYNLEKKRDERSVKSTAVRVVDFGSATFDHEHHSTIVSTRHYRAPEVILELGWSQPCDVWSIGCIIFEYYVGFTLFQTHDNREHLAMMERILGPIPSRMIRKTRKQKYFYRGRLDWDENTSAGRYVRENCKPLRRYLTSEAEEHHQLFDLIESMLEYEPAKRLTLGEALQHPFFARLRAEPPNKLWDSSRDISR
Chain of protein kinases of the Z-LYTE panel (Homo sapiens, UniProt Q13153) (Q13153 whole entry): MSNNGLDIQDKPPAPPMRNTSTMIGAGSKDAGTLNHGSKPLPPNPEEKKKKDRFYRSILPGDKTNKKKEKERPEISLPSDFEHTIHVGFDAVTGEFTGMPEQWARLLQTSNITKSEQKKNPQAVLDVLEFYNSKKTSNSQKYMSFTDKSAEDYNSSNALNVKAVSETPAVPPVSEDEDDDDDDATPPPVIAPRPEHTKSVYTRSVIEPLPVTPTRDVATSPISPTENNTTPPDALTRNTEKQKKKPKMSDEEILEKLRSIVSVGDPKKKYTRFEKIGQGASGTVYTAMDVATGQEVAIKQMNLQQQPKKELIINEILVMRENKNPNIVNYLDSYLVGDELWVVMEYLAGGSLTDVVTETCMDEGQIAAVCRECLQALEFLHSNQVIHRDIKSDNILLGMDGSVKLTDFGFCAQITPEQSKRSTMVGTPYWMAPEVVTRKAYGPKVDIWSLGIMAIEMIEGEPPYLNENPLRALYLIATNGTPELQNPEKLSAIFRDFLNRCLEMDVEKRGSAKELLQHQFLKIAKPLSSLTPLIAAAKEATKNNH
Chain of protein kinases of the Z-LYTE panel (Homo sapiens, UniProt Q9H792) (Q9H792 whole entry): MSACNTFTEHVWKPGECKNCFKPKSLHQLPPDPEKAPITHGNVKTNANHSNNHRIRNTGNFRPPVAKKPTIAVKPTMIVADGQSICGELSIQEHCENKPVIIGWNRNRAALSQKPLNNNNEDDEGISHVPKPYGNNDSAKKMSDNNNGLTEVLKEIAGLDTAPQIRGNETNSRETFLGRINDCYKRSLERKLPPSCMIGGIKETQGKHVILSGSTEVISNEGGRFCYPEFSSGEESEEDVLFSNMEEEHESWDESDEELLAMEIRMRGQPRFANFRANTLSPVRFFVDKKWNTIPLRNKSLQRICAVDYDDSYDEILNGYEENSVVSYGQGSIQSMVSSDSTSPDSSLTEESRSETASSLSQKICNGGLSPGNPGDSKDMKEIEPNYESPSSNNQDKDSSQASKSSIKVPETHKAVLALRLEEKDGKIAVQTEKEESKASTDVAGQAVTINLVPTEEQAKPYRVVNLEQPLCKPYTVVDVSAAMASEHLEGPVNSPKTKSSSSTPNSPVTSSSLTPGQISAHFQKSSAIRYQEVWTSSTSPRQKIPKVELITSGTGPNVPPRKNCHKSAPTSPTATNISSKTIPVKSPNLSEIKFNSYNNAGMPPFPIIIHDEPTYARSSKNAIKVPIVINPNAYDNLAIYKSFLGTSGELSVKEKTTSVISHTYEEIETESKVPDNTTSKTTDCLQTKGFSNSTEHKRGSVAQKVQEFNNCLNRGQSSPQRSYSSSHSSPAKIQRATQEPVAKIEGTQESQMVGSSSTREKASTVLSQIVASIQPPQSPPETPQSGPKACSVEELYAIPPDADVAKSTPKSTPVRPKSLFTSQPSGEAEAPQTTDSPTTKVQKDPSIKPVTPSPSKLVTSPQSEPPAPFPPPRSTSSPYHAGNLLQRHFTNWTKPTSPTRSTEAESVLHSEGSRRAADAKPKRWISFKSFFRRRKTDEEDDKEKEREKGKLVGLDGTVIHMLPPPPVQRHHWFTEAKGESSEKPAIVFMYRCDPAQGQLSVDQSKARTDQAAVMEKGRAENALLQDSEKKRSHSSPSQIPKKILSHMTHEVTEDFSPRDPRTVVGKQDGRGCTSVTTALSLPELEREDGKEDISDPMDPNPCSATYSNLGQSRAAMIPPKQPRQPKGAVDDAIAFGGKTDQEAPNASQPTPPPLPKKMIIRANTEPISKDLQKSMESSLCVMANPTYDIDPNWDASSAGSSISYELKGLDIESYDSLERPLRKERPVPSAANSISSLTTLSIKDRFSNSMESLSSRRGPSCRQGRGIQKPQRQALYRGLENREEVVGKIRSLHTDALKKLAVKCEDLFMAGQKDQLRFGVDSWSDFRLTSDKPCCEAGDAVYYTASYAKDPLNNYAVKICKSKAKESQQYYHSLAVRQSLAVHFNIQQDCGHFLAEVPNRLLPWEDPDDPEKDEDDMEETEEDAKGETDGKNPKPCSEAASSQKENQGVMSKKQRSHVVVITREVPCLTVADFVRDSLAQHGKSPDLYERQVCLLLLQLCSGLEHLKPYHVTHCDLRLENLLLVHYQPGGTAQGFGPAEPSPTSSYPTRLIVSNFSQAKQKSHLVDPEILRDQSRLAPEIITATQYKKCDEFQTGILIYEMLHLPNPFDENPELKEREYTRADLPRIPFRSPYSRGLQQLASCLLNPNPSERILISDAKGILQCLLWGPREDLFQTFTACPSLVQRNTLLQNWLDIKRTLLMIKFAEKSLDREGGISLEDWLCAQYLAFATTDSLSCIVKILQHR
Chain of protein kinases of the Z-LYTE panel (Homo sapiens, UniProt P31751) (P31751 whole entry): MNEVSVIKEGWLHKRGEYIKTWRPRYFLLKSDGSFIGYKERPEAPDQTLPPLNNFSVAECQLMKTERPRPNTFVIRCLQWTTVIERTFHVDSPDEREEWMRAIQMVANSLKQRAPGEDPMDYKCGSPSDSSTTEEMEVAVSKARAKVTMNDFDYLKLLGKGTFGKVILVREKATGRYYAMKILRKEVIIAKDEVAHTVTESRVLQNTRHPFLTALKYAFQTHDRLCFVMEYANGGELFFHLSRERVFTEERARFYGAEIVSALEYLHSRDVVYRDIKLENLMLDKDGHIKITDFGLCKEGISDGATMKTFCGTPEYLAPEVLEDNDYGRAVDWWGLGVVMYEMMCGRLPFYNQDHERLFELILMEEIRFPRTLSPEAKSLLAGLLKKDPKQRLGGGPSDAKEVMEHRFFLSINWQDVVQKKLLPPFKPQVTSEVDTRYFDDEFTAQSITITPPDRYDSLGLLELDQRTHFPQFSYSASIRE
Chain of protein kinases of the Z-LYTE panel (Homo sapiens, UniProt Q9P0L2) (Q9P0L2 whole entry): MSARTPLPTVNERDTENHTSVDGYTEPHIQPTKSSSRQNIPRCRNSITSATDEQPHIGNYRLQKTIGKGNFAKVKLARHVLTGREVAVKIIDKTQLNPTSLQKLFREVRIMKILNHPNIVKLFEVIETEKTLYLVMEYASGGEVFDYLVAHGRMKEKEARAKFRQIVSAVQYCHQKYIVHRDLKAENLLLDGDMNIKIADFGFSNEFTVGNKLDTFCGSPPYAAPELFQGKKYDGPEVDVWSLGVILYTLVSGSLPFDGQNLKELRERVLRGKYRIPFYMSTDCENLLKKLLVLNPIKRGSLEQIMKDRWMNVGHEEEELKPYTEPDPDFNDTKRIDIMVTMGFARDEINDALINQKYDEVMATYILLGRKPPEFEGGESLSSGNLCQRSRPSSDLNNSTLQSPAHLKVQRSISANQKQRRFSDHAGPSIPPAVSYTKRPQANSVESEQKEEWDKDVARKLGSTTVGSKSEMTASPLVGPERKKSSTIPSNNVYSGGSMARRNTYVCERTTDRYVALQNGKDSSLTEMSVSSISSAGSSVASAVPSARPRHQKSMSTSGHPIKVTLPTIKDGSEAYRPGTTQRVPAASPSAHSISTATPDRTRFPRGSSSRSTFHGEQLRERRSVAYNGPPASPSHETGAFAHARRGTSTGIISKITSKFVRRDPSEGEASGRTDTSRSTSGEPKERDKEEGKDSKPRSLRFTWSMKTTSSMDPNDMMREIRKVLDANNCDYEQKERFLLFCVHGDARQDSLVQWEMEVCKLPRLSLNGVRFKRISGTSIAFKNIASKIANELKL

`CCN1CCN(c2ccc(Nc3cc(Nc4cccc5c4N(C(C)=O)CC5)ccn3)cc2)CC1` [Compound 1938] gave an inhibition at 1 µM ([1]; read-out: % Inhibition Point 1) of 5.55%, an inhibition at 1 µM ([1]; read-out: % Inhibition Point 2) of 3.46% and an inhibition at 1 µM ([1]; read-out: % Inhibition mean) of 4.5%. The inhibition at 1 µM ([2]; read-out: % Inhibition Point 1) was 27%, the inhibition at 1 µM ([2]; read-out: % Inhibition Point 2) was 30% and the inhibition at 1 µM ([2]; read-out: % Inhibition mean) was 29%. The inhibition at 1 µM ([3]; read-out: % Inhibition Point 1) was 25%, the inhibition at 1 µM ([3]; read-out: % Inhibition Point 2) was 18% and the inhibition at 1 µM ([3]; read-out: % Inhibition mean) was 21%. The inhibition at 1 µM ([4]; read-out: % Inhibition Point 1) was 26%, the inhibition at 1 µM ([4]; read-out: % Inhibition Point 2) was 20% and the inhibition at 1 µM ([4]; read-out: % Inhibition mean) was 23%. It also gave an inhibition at 1 µM ([5]; read-out: % Inhibition Point 1) of 1.64%, an inhibition at 1 µM ([5]; read-out: % Inhibition Point 2) of 4% and an inhibition at 1 µM ([5]; read-out: % Inhibition mean) of 3%. It also gave an inhibition at 1 µM ([6]; read-out: % Inhibition Point 1) of 0.378%, an inhibition at 1 µM ([6]; read-out: % Inhibition Point 2) of 0.753% and an inhibition at 1 µM ([6]; read-out: % Inhibition mean) of 0.565%. For the same compound, the inhibition at 1 µM ([7]; read-out: % Inhibition Point 1) was 2.85%, the inhibition at 1 µM ([7]; read-out: % Inhibition Point 2) was 5% and the inhibition at 1 µM ([7]; read-out: % Inhibition mean) was 4%. The inhibition at 1 µM ([8]; read-out: % Inhibition Point 1) was -3.66%, the inhibition at 1 µM ([8]; read-out: % Inhibition Point 2) was -2.5% and the inhibition at 1 µM ([8]; read-out: % Inhibition mean) was -3%. The inhibition at 1 µM ([9]; read-out: % Inhibition Point 1) was 2.33%, the inhibition at 1 µM ([9]; read-out: % Inhibition Point 2) was 1.66% and the inhibition at 1 µM ([9]; read-out: % Inhibition mean) was 2%. It also gave an inhibition at 1 µM ([10]; read-out: % Inhibition Point 1) of 8.52%, an inhibition at 1 µM ([10]; read-out: % Inhibition Point 2) of 7% and an inhibition at 1 µM ([10]; read-out: % Inhibition mean) of 7.61%. It also gave an inhibition at 1 µM ([11]; read-out: % Inhibition Point 1) of 6.48%, an inhibition at 1 µM ([11]; read-out: % Inhibition Point 2) of 4% and an inhibition at 1 µM ([11]; read-out: % Inhibition mean) of 5.34%.
